Measured values taken from US6737383B1, “Herbicidal oxadiazolidines” (priority 1999, dated 2004).

Tests used:
corn = test: Test B pre/postemergence corn; format: in vivo, Zea mays
In short: (§1)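 Test chemicals in a non-phytotoxic solvent mixture with surfactant were sprayed preemergence onto planted seeds and postemergence onto plants 2 to 18 cm tall (1- to 4-leaf stage). After twelve to sixteen days in a greenhouse, injury was visually rated against untreated controls from 0 (no effect) to 10 (complete control).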

Italian ryegrass = test: Test E Italian ryegrass; format: in vivo, Lolium multiflorum; conditions: Preemergence
wild oat = test: Test E wild oat; format: in vivo, Avena fatua; conditions: Preemergence
crabgrass = test: Test B pre/postemergence crabgrass; format: in vivo, Digitaria sanguinalis
In short: as §1

green foxtail = test: Test E green foxtail; format: in vivo, Setaria viridis; conditions: Preemergence
winter barley = test: Test E winter barley; format: in vivo, Hordeum vulgare; conditions: Preemergence
winter wheat [1] = test: Test E winter wheat; format: in vivo, Triticum aestivum; conditions: Postemergence
In short: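 Postemergence: spray at 1–4 leaf stage, soil 60:40 sandy loam:potting mix; solvent + surfactant formulation; greenhouse 21–28 d; visual injury vs untreated controls.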

winter wheat [2] = test: Test E winter wheat; format: in vivo, Triticum aestivum; conditions: Preemergence
blackgrass = test: Test E blackgrass; format: in vivo, Alopecurus myosuroides; conditions: Preemergence
surinam grass = test: Test B pre/postemergence surinam grass; format: in vivo, Brachiaria decumbens
In short: as §1

bedstraw = test: Test B pre/postemergence bedstraw; format: in vivo, Galium aparine
In short: as §1

[3] = Postemergence, Rate 31 g/ha, visual rating, scale 0 to 10 (0 no effect, 10 complete control)
[4] = Preemergence, Rate 31 g/ha, visual rating, scale 0 to 10 (0 no effect, 10 complete control)
[5] = Preemergence, Rate 62 g/ha, scale of 0 to 10 where 0 is no effect and 10 is complete control
[6] = Rate 16 g/ha, Postemergence, scale 0 to 10, 0 no effect, 10 complete control
[7] = Rate 16 g/ha, Preemergence, scale 0 to 10, 0 no effect, 10 complete control
[8] = Rate 62 g/ha, Postemergence, scale 0 to 10 (0 no effect, 10 complete control)
[9] = Rate 125 g/ha, Postemergence, scale of 0 to 10 where 0 is no effect and 10 is complete control
[10] = Rate 125 g/ha, Preemergence, scale of 0 to 10 where 0 is no effect and 10 is complete control
[11] = Rate 500 g/ha, 0 to 100 scale (0 no effect, 100 complete control)
[12] = Rate 1000 g/ha, 0 to 100 scale, 0 no effect, 100 complete control
[13] = Rate 1000 g/ha, 0 to 100 scale where 0 is no effect and 100 is complete control
[14] = Rate 500 g/ha, 0 to 100 scale, 0 is no effect, 100 is complete control
[15] = Preemergence, Rate 250 g/ha, scale of 0 to 10 where 0 is no effect and 10 is complete control
[16] = Preemergence, Rate 500 g/ha, scale of 0 to 10 where 0 is no effect and 10 is complete control
[17] = Rate 250 g/ha, Postemergence, scale of 0 to 10 where 0 is no effect and 10 is complete control
[18] = Rate 500 g/ha, Postemergence, scale 0 to 10, 0 no effect, 10 complete control
[19] = Rate 250 g/ha, 0 to 100 scale, 0 no effect, 100 complete control
[20] = Rate 250 g/ha, 0 to 100 scale, 0 is no effect, 100 is complete control
[21] = Postemergence, Rate 125 g/ha, scale 0 to 10, 0 is no effect, 10 is complete control

SMILES: C=CCCCn1c(=O)on(C(=O)N(c2ccc(F)cc2)C(C)C)c1=O [Compound 291]
- Corn plant response rating (corn; [3]): 0
- Corn plant response rating (corn; [4]): 0
- Corn plant response rating (corn; [5]): 0
- Corn plant response rating (corn; [6]): 0
- Corn plant response rating (corn; [7]): 0
- Corn plant response rating (corn; [8]): 0
- Corn plant response rating (corn; [9]): 0
- Corn plant response rating (corn; [10]): 0
- I. Ryegrass plant response rating (0 to 100 scale) (Italian ryegrass; Rate 250 g/ha): 70
- Plant response rating, I. Ryegrass (Italian ryegrass; [11]): 100
- Plant response rating, I. Ryegrass (Italian ryegrass; [12]): 90
- Wild oat plant response rating (0 to 100 scale) (wild oat; Rate 250 g/ha): 20
- Plant response rating, Wild oat (wild oat; [11]): 50
- Plant response rating, Wild oat (wild oat; [12]): 60
- Crabgrass plant response rating (crabgrass; [3]): 0
- Crabgrass plant response rating (crabgrass; [4]): 0
- Crabgrass plant response rating (crabgrass; [5]): 0
- Crabgrass plant response rating (crabgrass; [6]): 0
- Crabgrass plant response rating (crabgrass; [7]): 0
- Crabgrass plant response rating (crabgrass; [8]): 0
- Crabgrass plant response rating (crabgrass; [9]): 0
- Crabgrass plant response rating (crabgrass; [10]): 0
- Green foxtail plant response rating (0 to 100 scale) (green foxtail; Rate 250 g/ha): 55
- Plant response rating, Green foxtail (green foxtail; [11]): 85
- Plant response rating, Green foxtail (green foxtail; [12]): 100
- Barley (winter) plant response rating (0 to 100 scale) (winter barley; Rate 250 g/ha): 10
- Plant response rating, Barley (winter) (winter barley; [11]): 30
- Plant response rating, Barley (winter) (winter barley; [12]): 20
- Plant response rating, Wheat (winter) (winter wheat [1]; [13]): 55
- Wheat (winter) plant response rating (winter wheat [1]; Rate 250 g/ha, 0 to 100 scale where 0 is no effect and 100 is complete control): 30
- Plant response rating, Wheat (winter) (winter wheat [1]; [14]): 40
- Wheat (winter) plant response rating (0 to 100 scale) (winter wheat [2]; Rate 250 g/ha): 35
- Plant response rating, Wheat (winter) (winter wheat [2]; [11]): 50
- Plant response rating, Wheat (winter) (winter wheat [2]; [12]): 60
- Blackgrass plant response rating (0 to 100 scale) (blackgrass; Rate 250 g/ha): 30
- Plant response rating, Blackgrass (blackgrass; [11]): 40
- Plant response rating, Blackgrass (blackgrass; [12]): 50
- B. signalgrass plant response rating (surinam grass; [3]): 0
- B. signalgrass plant response rating (surinam grass; [4]): 0
- B. signalgrass plant response rating (surinam grass; [5]): 0
- B. signalgrass plant response rating (surinam grass; [6]): 0
- B. signalgrass plant response rating (surinam grass; [7]): 0
- B. signalgrass plant response rating (surinam grass; [8]): 0
- B. signalgrass plant response rating (surinam grass; [9]): 0
- B. signalgrass plant response rating (surinam grass; [10]): 3
- Bedstraw plant response rating (bedstraw; [3]): 0
- Bedstraw plant response rating (bedstraw; [4]): 0
- Bedstraw plant response rating (bedstraw; [5]): 0
- Bedstraw plant response rating (bedstraw; [6]): 0
- Bedstraw plant response rating (bedstraw; [7]): 0
- Bedstraw plant response rating (bedstraw; [8]): 0
- Bedstraw plant response rating (bedstraw; [9]): 3
- Bedstraw plant response rating (bedstraw; [10]): 0

SMILES: CCN(C(=O)n1oc(=O)n(C(C)C)c1=O)C1CCCCC1 [Compound 309]
- Corn plant response rating (corn; [5]): 0
- Corn plant response rating (0 to 10 scale) (corn; Preemergence, Rate 125 g/ha): 0
- Corn plant response rating (corn; [15]): 2
- Corn plant response rating (corn; [16]): 4
- Corn plant response rating (corn; [8]): 0
- Corn plant response rating (corn; [9]): 0
- Plant response rating, Corn (corn; [17]): 0
- Corn plant response rating (corn; [18]): 0
- Plant response rating, I. Ryegrass (Italian ryegrass; Rate 250 g/ha, 0 to 100 scale): 50
- Plant response rating, I. Ryegrass (Italian ryegrass; [11]): 60
- Plant response rating, I. Ryegrass (Italian ryegrass; [12]): 70
- Plant response rating, Wild oat (wild oat; Rate 250 g/ha, 0 to 100 scale): 50
- Plant response rating, Wild oat (wild oat; [11]): 50
- Plant response rating, Wild oat (wild oat; [12]): 70
- Crabgrass plant response rating (crabgrass; [5]): 0
- Crabgrass plant response rating (0 to 10 scale) (crabgrass; Preemergence, Rate 125 g/ha): 1
- Crabgrass plant response rating (crabgrass; [15]): 2
- Crabgrass plant response rating (crabgrass; [16]): 6
- Crabgrass plant response rating (crabgrass; [8]): 0
- Crabgrass plant response rating (crabgrass; [9]): 0
- Plant response rating, Crabgrass (crabgrass; [17]): 0
- Plant response rating, Green foxtail (green foxtail; Rate 250 g/ha, 0 to 100 scale): 65
- Plant response rating, Green foxtail (green foxtail; [11]): 100
- Plant response rating, Green foxtail (green foxtail; [12]): 100
- Plant response rating, Barley (winter) (winter barley; [19]): 50
- Plant response rating, Barley (winter) (winter barley; [11]): 20
- Plant response rating, Barley (winter) (winter barley; [12]): 70
- Plant response rating, Wheat (winter) (winter wheat [1]; [20]): 50
- Plant response rating, Wheat (winter) (winter wheat [1]; [13]): 80
- Plant response rating, Wheat (winter) (winter wheat [1]; [14]): 70
- Plant response rating, Wheat (winter) (winter wheat [2]; Rate 250 g/ha, 0 to 100 scale): 70
- Plant response rating, Wheat (winter) (winter wheat [2]; [11]): 65
- Plant response rating, Wheat (winter) (winter wheat [2]; [12]): 70
- Plant response rating, Blackgrass (blackgrass; Rate 250 g/ha, 0 to 100 scale): 60
- Plant response rating, Blackgrass (blackgrass; [11]): 60
- Plant response rating, Blackgrass (blackgrass; [12]): 75
- B. signalgrass plant response rating (surinam grass; [5]): 0
- B. signalgrass plant response rating (0 to 10 scale, 0 is no effect, 10 is complete control) (surinam grass; Preemergence, Rate 125 g/ha): 0
- B. signalgrass plant response rating (surinam grass; [15]): 0
- B. signalgrass plant response rating (surinam grass; [16]): 2
- B. signalgrass plant response rating (surinam grass; [8]): 0
- B. signalgrass plant response rating (surinam grass; [9]): 0
- Plant response rating, B. signalgrass (surinam grass; [17]): 0
- B. signalgrass plant response rating (surinam grass; [18]): 0
- Bedstraw plant response rating (bedstraw; [5]): 0
- Bedstraw plant response rating (0 to 10 scale) (bedstraw; Preemergence, Rate 125 g/ha): 0
- Bedstraw plant response rating (bedstraw; [15]): 0
- Bedstraw plant response rating (bedstraw; [16]): 0
- Bedstraw plant response rating (bedstraw; [8]): 0
- Bedstraw plant response rating (bedstraw; [9]): 0
- Plant response rating, Bedstraw (bedstraw; [17]): 0
- Bedstraw plant response rating (bedstraw; [18]): 0

SMILES: CC(C)N(C(=O)n1oc(=O)n(C2CC3CCC2C3)c1=O)c1ccccc1 (centres unmarked) [Compound 328]
- Plant response rating, Corn (corn; [21]): 0
- Corn plant response rating (corn; [5]): 0
- Corn plant response rating (0 to 10 scale) (corn; Preemergence, Rate 125 g/ha): 0
- Corn plant response rating (corn; [15]): 0
- Corn plant response rating (corn; [16]): 0
- Corn plant response rating (corn; [8]): 0
- Plant response rating, Corn (corn; [17]): 0
- Plant response rating, Corn (corn; [18]): 0
- Plant response rating, I. Ryegrass (Italian ryegrass; Rate 250 g/ha, 0 to 100 scale): 65
- Plant response rating, I. Ryegrass (Italian ryegrass; [11]): 60
- Plant response rating, I. Ryegrass (Italian ryegrass; [12]): 70
- Plant response rating, Wild oat (wild oat; Rate 250 g/ha, 0 to 100 scale): 70
- Plant response rating, Wild oat (wild oat; [11]): 50
- Plant response rating, Wild oat (wild oat; [12]): 60
- Plant response rating, Crabgrass (crabgrass; [21]): 0
- Crabgrass plant response rating (crabgrass; [5]): 0
- Crabgrass plant response rating (0 to 10 scale) (crabgrass; Preemergence, Rate 125 g/ha): 0
- Crabgrass plant response rating (crabgrass; [15]): 3
- Crabgrass plant response rating (crabgrass; [16]): 5
- Crabgrass plant response rating (crabgrass; [8]): 0
- Plant response rating, Crabgrass (crabgrass; [17]): 0
- Plant response rating, Crabgrass (crabgrass; [18]): 2
- Plant response rating, Green foxtail (green foxtail; Rate 250 g/ha, 0 to 100 scale): 100
- Plant response rating, Green foxtail (green foxtail; [11]): 85
- Plant response rating, Green foxtail (green foxtail; [12]): 100
- Plant response rating, Barley (winter) (winter barley; [19]): 40
- Plant response rating, Barley (winter) (winter barley; [11]): 50
- Plant response rating, Barley (winter) (winter barley; [12]): 70
- Plant response rating, Wheat (winter) (winter wheat [1]; [20]): 65
- Plant response rating, Wheat (winter) (winter wheat [1]; [13]): 80
- Plant response rating, Wheat (winter) (winter wheat [1]; [14]): 70
- Plant response rating, Wheat (winter) (winter wheat [2]; Rate 250 g/ha, 0 to 100 scale): 40
- Plant response rating, Wheat (winter) (winter wheat [2]; [11]): 70
- Plant response rating, Wheat (winter) (winter wheat [2]; [12]): 70
- Plant response rating, Blackgrass (blackgrass; Rate 250 g/ha, 0 to 100 scale): 50
- Plant response rating, Blackgrass (blackgrass; [11]): 50
- Plant response rating, Blackgrass (blackgrass; [12]): 40
- Plant response rating, B. signalgrass (surinam grass; [21]): 0
- B. signalgrass plant response rating (surinam grass; [5]): 0
- B. signalgrass plant response rating (0 to 10 scale, 0 is no effect, 10 is complete control) (surinam grass; Preemergence, Rate 125 g/ha): 0
- B. signalgrass plant response rating (surinam grass; [15]): 0
- B. signalgrass plant response rating (surinam grass; [16]): 5
- B. signalgrass plant response rating (surinam grass; [8]): 0
- Plant response rating, B. signalgrass (surinam grass; [17]): 0
- Plant response rating, B. signalgrass (surinam grass; [18]): 0
- Plant response rating, Bedstraw (bedstraw; [21]): 1
- Bedstraw plant response rating (bedstraw; [5]): 0
- Bedstraw plant response rating (0 to 10 scale) (bedstraw; Preemergence, Rate 125 g/ha): 0
- Bedstraw plant response rating (bedstraw; [8]): 0
- Plant response rating, Bedstraw (bedstraw; [17]): 4
